{"source": "PubChem BioAssay AID2740", "about": "(NMMLSC, 2010)", "note": "Several values for one entry are separate records, joined by “and”; a condition that tells them apart may be missing. Equal entries are not always repeated. Activity calls are given as the source filed them.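 Rule for the calls: active = compounds whose fitted half-maximal concentration for changing the GFP signal is at or below a set limit; inactive = the rest.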"}
{"test": "TOR pathway RPL19A-GFP modulators, concentration series – cell-based, S. cerevisiae, flow cytometry, MLPCN hits, dose response (AID 2740);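 note: background is signal of the same compound in parental non-GFP s288c yeast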", "conditions": "S. cerevisiae RPL19A-GFP strain, flow cytometry fluorescence, 3 h; at 33 µM (top of the series)"}
{"compound": "O=c1c2cnn(-c3ccccc3)c2ncn1Cc1ccco1", "GFP fluorescence, lower = active (kMESF (background-subtracted))": "35.6 (inactive)"}
{"compound": "COc1ccc(-c2cc3cc(C(=O)O)ccn3c2C(=O)c2ccccc2)cc1", "GFP fluorescence, lower = active (kMESF (background-subtracted))": "43.5 (inactive)"}
{"compound": "Nc1ccccc1SC(C[N+](=O)[O-])c1ccccc1", "note": "(configuration not stated)", "GFP fluorescence, lower = active (kMESF (background-subtracted))": "38.1 (inactive)"}
{"compound": "CCCOc1ccc(C(=O)NNC(=S)NC(=O)CC)cc1", "GFP fluorescence, lower = active (kMESF (background-subtracted))": "50.5 (inactive)"}
{"compound": "N/C(=N\\OC(=O)c1ccc(Cl)cc1Cl)c1ccccc1", "GFP fluorescence, lower = active (kMESF (background-subtracted))": "39.4 (inactive)"}
{"compound": "O=C1C2C3C=CC(CO)(O3)C2C(=O)N1c1ccccc1-c1ccccc1", "note": "(configuration not stated)", "GFP fluorescence, lower = active (kMESF (background-subtracted))": "20.9 (inactive)"}
{"compound": "O=C(CS(=O)c1ccccc1[N+](=O)[O-])Oc1ccc(Br)cc1", "note": "(configuration not stated)", "GFP fluorescence, lower = active (kMESF (background-subtracted))": "39.1 (inactive)"}
{"compound": "O=C1Nc2ccc(Br)cc2/C1=C/C(=O)c1ccc2c(c1)OCO2", "GFP fluorescence, lower = active (kMESF (background-subtracted))": "40.6 (inactive)"}
{"compound": "CCOC(=O)CS(=O)(=O)c1nc(-c2ccc(F)cc2)cc(C(F)(F)F)n1", "GFP fluorescence, lower = active (kMESF (background-subtracted))": "46.7 (inactive)"}
{"compound": "Cc1cccnc1Nc1nc(-c2ccccn2)cs1", "GFP fluorescence, lower = active (kMESF (background-subtracted))": "33.3 (inactive)"}
{"compound": "O=C(Nc1nnc(-c2ccc3c(c2)CCCC3)o1)c1ccc(Cl)cc1Cl", "GFP fluorescence, lower = active (kMESF (background-subtracted))": "37.2 (inactive)"}
{"compound": "COc1cccc(/C=N/Nc2ccc([N+](=O)[O-])cn2)c1O", "GFP fluorescence, lower = active (kMESF (background-subtracted))": "42.1 (inactive)"}
{"compound": "CC1=C/C(=N\\OS(=O)(=O)c2ccccc2)C(C)=CC1=O", "GFP fluorescence, lower = active (kMESF (background-subtracted))": "17.1 (inactive)"}
{"compound": "N#Cc1nccnc1S(=O)(=O)c1cccs1", "GFP fluorescence, lower = active (kMESF (background-subtracted))": "35.5 (inactive)"}
{"compound": "O=C(Nc1nnc(-c2ccc(F)cc2)o1)c1cccc([N+](=O)[O-])c1", "GFP fluorescence, lower = active (kMESF (background-subtracted))": "43.5 (inactive)"}
{"compound": "O=C(c1ccccc1)c1ccccc1N1C(=O)C=CC1=O", "GFP fluorescence, lower = active (kMESF (background-subtracted))": "26 (inactive)"}
{"compound": "O=C(c1ccc(C(=O)N2CCCc3ccccc32)s1)N1CCCc2ccccc21", "GFP fluorescence, lower = active (kMESF (background-subtracted))": "38.1 (inactive)"}
{"compound": "Cc1ccc2c(c1)c(/C=C/c1cc[n+](C)cc1)c(C)n2C", "GFP fluorescence, lower = active (kMESF (background-subtracted))": "40.7 (inactive)"}
{"compound": "COc1ccc(C(=O)NC(=S)NNC(=O)CCc2ccccc2)cc1", "GFP fluorescence, lower = active (kMESF (background-subtracted))": "46.5 (inactive)"}
{"compound": "COC(CNC(=O)c1ccc2c3c(onc13)-c1ccccc1C2=O)OC", "GFP fluorescence, lower = active (kMESF (background-subtracted))": "14.8 (inactive)"}
{"compound": "O=C(NNC(=S)NC(=O)C12CC3CC(CC(C3)C1)C2)c1ccncc1", "GFP fluorescence, lower = active (kMESF (background-subtracted))": "46.9 (inactive)"}
{"compound": "Nc1ccc2ccc3cccc[n+]3c2c1", "GFP fluorescence, lower = active (kMESF (background-subtracted))": "45.9 (inactive)"}
{"compound": "COc1ccc(C2=CC(=O)N(Nc3ccccc3)C2=O)cc1", "GFP fluorescence, lower = active (kMESF (background-subtracted))": "34.6 (inactive)"}
{"compound": "O/C=c1\\ccc2cccc3nc(C(F)(F)F)nc1c23", "GFP fluorescence, lower = active (kMESF (background-subtracted))": "53.9 (inactive)"}
{"compound": "COc1ccc(-c2cc3nc4n(c(=O)c3s2)CCC4)cc1", "GFP fluorescence, lower = active (kMESF (background-subtracted))": "21.6 (inactive)"}
{"compound": "Oc1ccc(CNc2ccccc2)c2cccnc12", "GFP fluorescence, lower = active (kMESF (background-subtracted))": "42.2 (inactive)"}
{"compound": "COc1ccccc1C(=O)NNC(=S)NC(=O)c1ccco1", "GFP fluorescence, lower = active (kMESF (background-subtracted))": "35.5 (inactive)"}
{"compound": "COc1cc(/C=C2\\CC/C(=C\\c3cc(OC)c(O)c(OC)c3)C2=O)cc(OC)c1O", "GFP fluorescence, lower = active (kMESF (background-subtracted))": "39.6 (inactive)"}
{"compound": "CC(C)[C@]1(c2ccc(Cl)cc2)ON(c2ccccc2C(F)(F)F)C1=O", "GFP fluorescence, lower = active (kMESF (background-subtracted))": "40.6 (inactive)"}
{"compound": "COc1ccccc1[C@@]1(C)ON(c2ccccc2C(F)(F)F)C1=O", "GFP fluorescence, lower = active (kMESF (background-subtracted))": "22.7 (inactive)"}
{"compound": "Cc1[nH]n(-c2ncc(-c3ccccc3)s2)c(=O)c1C(c1ccc(Cl)cc1)C(C#N)C#N", "note": "(configuration not stated)", "GFP fluorescence, lower = active (kMESF (background-subtracted))": "42 (inactive)"}
{"compound": "Nc1nc2ncc(CNc3ccc(C(=O)N[C@@H](CCC(=O)O)C(=O)O)cc3)nc2c(=O)[nH]1", "GFP fluorescence, lower = active (kMESF (background-subtracted))": "37 (inactive)"}
{"compound": "Cc1ccc(C(=O)Sc2cccccc2=O)cc1", "GFP fluorescence, lower = active (kMESF (background-subtracted))": "27.8 (inactive)"}
{"compound": "Cc1ccnc(N2C(=O)c3cccc4c([N+](=O)[O-])ccc(c34)C2=O)c1", "GFP fluorescence, lower = active (kMESF (background-subtracted))": "56.1 (inactive)"}
{"compound": "Cc1c(C(=O)Nc2nc(-c3ccccn3)cs2)oc2ccccc12", "GFP fluorescence, lower = active (kMESF (background-subtracted))": "33.3 (inactive)"}
{"compound": "COc1ccc2c(/C=C/c3cc[n+](C)cc3)c[nH]c2c1", "GFP fluorescence, lower = active (kMESF (background-subtracted))": "39 (inactive)"}
{"compound": "O=C(Nc1nc(-c2ccccn2)cs1)C1COc2ccccc2O1", "note": "(configuration not stated)", "GFP fluorescence, lower = active (kMESF (background-subtracted))": "21.1 (inactive)"}
{"compound": "C#CCOCCOCCOCCNc1nc(N2CCN(C(=O)CCCCCCCCCCNC(=O)[C@H](CCCCN)n3cc(CCCC(=O)O)nn3)CC2)nc(N2CCN(C(=O)CCCCCCCCCCNC(=O)[C@H](CCCN=C(N)N)n3cc(C[C@@H](C)CC)nn3)CC2)n1", "GFP fluorescence, lower = active (kMESF (background-subtracted))": "27.1 (inactive)"}
{"compound": "O=C1C=CC(=O)N1N(c1ccccc1)c1ccccc1", "GFP fluorescence, lower = active (kMESF (background-subtracted))": "23.9 (inactive)"}
{"compound": "COc1cc(/C=C2\\C(=O)ON=C2c2ccccc2)cc(OC)c1OC", "GFP fluorescence, lower = active (kMESF (background-subtracted))": "33.4 (inactive)"}
{"compound": "O=C1C=C(c2ccc(Cl)cc2)C(=O)N1Nc1ccccc1", "GFP fluorescence, lower = active (kMESF (background-subtracted))": "18.7 (inactive)"}
{"compound": "Cc1ccc(C(=O)O/N=C(\\N)Cc2cccs2)c(Cl)c1", "GFP fluorescence, lower = active (kMESF (background-subtracted))": "38.5 (inactive)"}
{"compound": "COC(=O)CCC(=O)OC1(C)C(=O)C2=COC(c3ccc(OC)cc3)=CC2=C(Br)C1=O", "note": "(configuration not stated)", "GFP fluorescence, lower = active (kMESF (background-subtracted))": "32.8 (inactive)"}
{"compound": "CCN1/C(=C/c2ccc3cc(C)ccc3[n+]2CC)Sc2ccc3sccc3c21", "GFP fluorescence, lower = active (kMESF (background-subtracted))": "31.5 (inactive)"}
{"compound": "CCN(CC)c1ccc(/C=C2/C(=O)c3ccc(C(=O)O)cc3C2=O)cc1", "GFP fluorescence, lower = active (kMESF (background-subtracted))": "38.3 (inactive)"}
{"compound": "Cc1ccc(S(=O)(=O)/N=C(\\Sc2ccccc2)c2ccccc2)cc1", "GFP fluorescence, lower = active (kMESF (background-subtracted))": "42 (inactive)"}
{"compound": "CC(=O)N(C1=C(Cl)C(=O)c2ccccc2C1=O)C1CCCCC1", "GFP fluorescence, lower = active (kMESF (background-subtracted))": "-1.82 (inactive)"}
{"compound": "CN(Cc1cnc2nc(N)nc(N)c2n1)c1ccc(C(=O)N[C@@H](CCC(=O)O)C(=O)O)cc1", "GFP fluorescence, lower = active (kMESF (background-subtracted))": "39.3 (inactive) and 38.8 (inactive)"}
{"compound": "Cc1ccc(NC(=O)ON=C2CCCC2)cc1", "GFP fluorescence, lower = active (kMESF (background-subtracted))": "39.3 (inactive)"}
{"compound": "O=C(/C=C/c1ccc(Br)cc1)NC(=S)NNC(=O)c1ccco1", "GFP fluorescence, lower = active (kMESF (background-subtracted))": "50.2 (inactive)"}
{"compound": "CCOC(=O)C1=C(O)c2ccccc2C(=O)/C1=C\\c1ccc(C)cc1", "GFP fluorescence, lower = active (kMESF (background-subtracted))": "-7.18 (inactive)"}
{"compound": "CC(C)Oc1ccc(C(=O)/C=C2/C(=O)Nc3ccccc32)cc1", "GFP fluorescence, lower = active (kMESF (background-subtracted))": "29 (inactive)"}
{"compound": "N#Cc1c2ccc([N+](=O)[O-])cc2[n+]([O-])n1-c1ccccc1", "GFP fluorescence, lower = active (kMESF (background-subtracted))": "51.8 (inactive)"}
{"compound": "Cc1[nH][nH]c(=O)c1C(c1ccc(-c2ccc(Cl)cc2)o1)c1c(C)[nH][nH]c1=O", "GFP fluorescence, lower = active (kMESF (background-subtracted))": "41.2 (inactive)"}
{"compound": "CN1CCN(C(c2ccc(C(F)(F)F)cc2)c2ccc3cccnc3c2O)CC1", "note": "(configuration not stated)", "GFP fluorescence, lower = active (kMESF (background-subtracted))": "29.6 (inactive)"}
{"compound": "COc1cc(/C=C2\\C(=O)ON=C2c2ccc(Cl)cc2)ccc1O", "GFP fluorescence, lower = active (kMESF (background-subtracted))": "40.8 (inactive)"}
{"compound": "COc1ccccc1NC1=C(Cl)C(=O)N(c2ccccc2)C1=O", "GFP fluorescence, lower = active (kMESF (background-subtracted))": "39.5 (inactive)"}
